From patent US10161008B2, “miR-193a-3p and associated genes predict tumorigenesis and chemotherapy outcomes” (Genedia Biotech Co., Ltd., priority 2011, dated 2018)
Converted amounts (≈) assume the structure as drawn. Where two headings read alike, the source gives them in different places. One block for each molecule: values may come before it.

Key:
[1] = test system: miR-193a-3p; assay: qRT-PCR of miR-193a-3p after demethylation in QGY-7703; type: cell-based, human; details: QGY-7703, treated 2 and 4 days
Text: A. The physical map of the miR-193 gene region for DNA methylation analysis. (FIG. 3A discloses SEQ ID NO: 23) B. The methylation state of each of 27 CpGs in the mock treated (Mock) and treated for 2 days (2D) and 4 days (4D). C. The methylation frequency in B (unit: mC/Total) is plotted. D. The methylation state of the miR-193a gene determined by methylation-specific PCR is shown. Control: the unmethylated (U) and methylated (M) control DNA, respectively. E. Relative miR-193a-3p level determined by qRT-PCR was plotted. (*P<0.05, **P<0.01).
RNA: Total RNA was isolated using TRIzol reagent (Invitrogen, USA). Complementary DNA synthesis was performed using a primeScript RT reagent kit (Tiangen Biotech Co., Ltd., Beijing, China) for the SYBR® Green-based real-time PCR analysis in Rotor-Gene™ 6000 system, Qiagen, Germany) of SRSF2, E2F1, ABCC8, and CASP2S/L. The expression of miR-193a-3p (Ribobio, Guangzhou, China) was assessed using the 2-Ct method with RNA content normalized to the U6 RNA (Ribobio, Guangzhou, China) and to β-actin for other genes and plotted. The high-throughput, quantitative nuclease protection based analysis (Bourzac K. M. et al. (2011) J Biotechnol, 154, 68-75; Pechhold S. et al. (2009) Nat Biotechnol, 27, 1038-1042) on a customized array that are designed for the simultaneous determination of the expression of 42 human miRs and 5 housekeeping genes was determined. […]

[2] = test system: QGY-7703 cells; assay: MTT-based IC50 determination in QGY-7703; type: cell-based, human; details: for IC50: Homo sapiens
Method: (§1) The log phase of cell culture was obtained in Dulbecco modified Eagle medium (Invitrogen) containing 10% calf serum and 1% streptomycin-penicillin at 37° C. in 5% CO2. The thiazolyl blue tetrazolium […] cell proliferation assay was carried out as follows: 5×10^3 to 1×10^4 cells in triplicate were cultured into each well of a 96-well plate (in triplicate) for 72 h, followed by a 3-h 37° C. incubation after addition of 10 μL (5 mg/mL) MTT salt (Sigma, USA). The OD 570-nm reading was obtained; the mean and SD of the triplicate experiments were calculated and plotted (Fei Q. et al. (2008) Acta Biochim Biophys Sin (Shanghai), 40, 466-477).
(§2) The relative OD 570-nm readings (mean and SD) in each drug-treated set and the no-drug mock sample were calculated (%) and plotted against the logarithm of the drug concentration. The linear regression parameters were determined for each curve and the IC50 extrapolated (Andrisano V. et al. (2001) J Chromatogr B Biomed Sci Appl, 753, 375-383). Sources of the drugs are as follows: 5-FU, Shanghai Xudong Haipu Pharmaceutical, China; gemcitabine, Jiangsu Hansen Pharmaceutical, China; epirubicin, Shenzhen Main Luck Pharmaceutical, China; irinotecan, Aventis Pharmaceutical, Germany; paclitaxel, Bristol-Myers Squibb, USA; mitomycin, Hisun Pharmaceutical, China); docetaxel, Jiangsu Hengrui Medicine, China; vinorelbine, Yangzhou Aosaikang Pharmaceutical, China; and cisplatin, Qilu Pharmaceutical Factory, China.

[3] = test system: SMMC-7721 cells; assay: MTT-based IC50 determination in SMMC-7721; type: cell-based; details: Homo sapiens
Method: as §1, §2

[4] = test system: Bcap-37 versus ZR-75-30 breast cancer cells; assay: IC50 screen of breast cancer cell lines; type: cell-based, human; details: Bcap-37 vs ZR-75-30
Method: The log phase of cell culture was obtained in Dulbecco modified Eagle medium (Invitrogen) containing 10% calf serum and 1% streptomycin-penicillin at 37° C. in 5% CO2. The thiazolyl blue tetrazolium blue (MTT)-based cell proliferation assay was carried out as follows: 5×10^3 to 1×10^4 cells in triplicate were cultured into each well of a 96-well plate (in triplicate) for 72 h, followed by a 3-h 37° C. incubation after addition of 10 μL (5 mg/mL) MTT salt (Sigma, USA). The OD 570-nm reading was obtained; the mean and SD of the triplicate experiments were calculated and plotted (Fei Q. et al. (2008) Acta Biochim Biophys Sin (Shanghai), 40, 466-477).
The relative OD 570-nm readings (mean and SD) in each drug-treated set and the no-drug mock sample were calculated (%) and plotted against the logarithm of the drug concentration. The linear regression parameters were determined for each curve and the IC50 extrapolated (Andrisano V. et al. (2001) J Chromatogr B Biomed Sci Appl, 753, 375-383). […]

[5] = test system: SMMC-7721 tumor xenografts; assay: SMMC-7721 tumor growth in nude mice; type: in vivo
Method: After transfection with 50 nM miR-193a-3p or mock antagomirs (Ribobio, China) for 24 h, SMMC-7721 cells were collected and subcutaneously injected into the left and right flanks (1.25×10^6 cells/point) of each nude mouse (10 total), respectively. On day 12 after cell injection, 5 mice received 5-FU (75 mg/kg mouse body weight) intraperitoneal and then twice again in 1 week. The remaining 5 mice received phosphate-buffered saline (PBS) as a mock treatment control. And at the same time, the right side of all mice tumor were intratumorally injected with miR-193a-3p antagomir and left side with mock antagomir (according to manufacture instruction, Ribobio). To monitor the tumor growth, the volume was measured with a Vernier caliper on days 12, 18, 25, and 32 and calculated as Volume=W^2×L×0.5 (W and L represent the largest and next largest tumor diameters [cm]) and then plotted. Mice were humanely sacrificed on day 32, and tumors were weighed and photographed. Immunostaining was performed for ki67, SFS2, and E2F1 expression in both tumors of mouse number 4 (mock treated) mouse number 6 (5-FU treated).

[6] = test system: CASP2L and CASP2S mRNAs of caspase 2; assay: qRT-PCR of caspase 2 splice forms in QGY-7703; type: cell-based, human; details: QGY-7703, low dose 4 μg/mL, one day
Method: (§3) RNA: Total RNA was isolated using TRIzol reagent (Invitrogen, USA). Complementary DNA synthesis was performed using a primeScript RT reagent kit (Tiangen Biotech Co., Ltd., Beijing, China) for the SYBR® Green-based real-time PCR analysis in Rotor-Gene™ 6000 system, Qiagen, Germany) of SRSF2, E2F1, ABCC8, and CASP2S/L. The expression of miR-193a-3p (Ribobio, Guangzhou, China) was assessed using the 2-Ct method with RNA content normalized to the U6 RNA (Ribobio, Guangzhou, China) and to β-actin for other genes and plotted. The high-throughput, quantitative nuclease protection based analysis (Bourzac K. M. et al. (2011) J Biotechnol, 154, 68-75; Pechhold S. et al. (2009) Nat Biotechnol, 27, 1038-1042) on a customized array that are designed for the simultaneous determination of the expression of 42 human miRs and 5 housekeeping genes was determined. Only miR-193a-3p expression was shown.
(§4) In light of all the known so far, this ratio is very likely to be most robust indicator to 5-FU resistance of HCC. To determine the 5-FU impact in this system, this example treated both cell lines by 4 μg/mL (a low dose) and 300 μg/mL (a high dose) for one day, respectively. […] As expected, both RNA and protein of SRSF2 were elevated by a larger margin than E2F1 in both QGY-7703 and SMMC-7721 (FIGS. 8B, C and F). […]

[7] = test system: CASP2L and CASP2S mRNAs of caspase 2; assay: qRT-PCR of caspase 2 splice forms in SMMC-7721; type: cell-based, human; details: SMMC-7721, low dose 4 μg/mL, one day
Method: as §3, §4

[8] = test system: HepG2 cells; assay: MTT-based IC50 determination in HepG2; type: cell-based, human
Method: The log phase of cell culture was obtained in Dulbecco modified Eagle medium (Invitrogen) containing 10% calf serum and 1% streptomycin-penicillin at 37° C. in 5% CO2. The thiazolyl blue tetrazolium blue (MTT)-based cell proliferation assay was carried out as follows: 5×10^3 to 1×10^4 cells in triplicate were cultured into each well of a 96-well plate (in triplicate) for 72 h, followed by a 3-h 37° C. incubation after addition of 10 μL (5 mg/mL) MTT salt (Sigma, USA).
The relative OD 570-nm readings (mean and SD) in each drug-treated set and the no-drug mock sample were calculated (%) and plotted against the logarithm of the drug concentration. […] Sources of the drugs are as follows: 5-FU, Shanghai Xudong Haipu Pharmaceutical, China; gemcitabine, Jiangsu Hansen Pharmaceutical, China; epirubicin, Shenzhen Main Luck Pharmaceutical, China; irinotecan, Aventis Pharmaceutical, Germany; paclitaxel, Bristol-Myers Squibb, USA; mitomycin, Hisun Pharmaceutical, China); docetaxel, Jiangsu Hengrui Medicine, China; vinorelbine, Yangzhou Aosaikang Pharmaceutical, China; and cisplatin, Qilu Pharmaceutical Factory, China.

[9] = antagomir treated SMMC-7721, 5-FU 75 mg/kg intraperitoneal, day 32
[10] = mock-transfected SMMC-7721, 5-FU 75 mg/kg intraperitoneal, day 32

SMILES: Nc1ncn([C@H]2C[C@H](O)[C@@H](CO)O2)c(=O)n1 [5-Aza-2′-deoxycytidine]
steady state level of miR-193a-3p [1]: raised the steady state level of miR-193a-3p

IC50 of QGY-7703 lower than that of SMMC-7721 ([2]; QGY-7703 vs SMMC-7721): approximately 105.2 fold
IC50 ([3]; SMMC-7721, 72 h, MTT, read-out: IC50 to 5-FU): 41 µg/mL (≈ 315 µM)
IC50 ([3]; SMMC-7721, miR-193a-3p antagomir-transfected SMMC-7721, read-out: 5-FU IC50): 13.4 µg/mL (≈ 103 µM)
Bcap-37 more resistant than ZR-75-30 (relative IC50) [4]: 69.0 fold
IC50 of HepG2 lower than SMMC-7721 ([8]; HepG2 vs SMMC-7721): 27.3 fold
IC50 ([8]; Homo sapiens, HepG2, 72 h, MTT, read-out: IC50 to 5-FU): 1.45 µg/mL (≈ 11.1 µM)
SMILES: O=c1[nH]cc(F)c(=O)[nH]1 [5-FU, 5-fluorouracil]
IC50 ([2]; QGY-7703, 72 h, MTT, read-out: IC50 to 5-FU): 0.39 µg/mL (≈ 3 µM)
IC50 ([2]; QGY-7703, SRSF2 siRNA-transfected QGY-7703, read-out: IC50 of 5-FU): 2.22 µg/mL (≈ 17.1 µM)
IC50 ([2]; QGY-7703, miR-193a-3p mimic-transfected QGY-7703, read-out: 5-FU IC50): 5.29 µg/mL (≈ 40.7 µM)
IC50 ([2]; QGY-7703, mock mimic-transfected QGY-7703, read-out: 5-FU IC50): 0.72 µg/mL (≈ 5.54 µM)
IC50 ([2]; QGY-7703, mock siRNA-transfected QGY-7703, read-out: IC50 of 5-FU): 0.68 µg/mL (≈ 5.23 µM)
IC50 ([3]; SMMC-7721, mock-transfected SMMC-7721, read-out: 5-FU IC50): 46.7 µg/mL (≈ 359 µM)
tumor volume [5, 9]: 0.29 cm^3
tumor weight [5, 9]: 0.37 g
tumor volume ([5]; mock-transfected SMMC-7721, 5-FU 75 mg/kg intraperitoneal, day 25): 0.45 cm^3
tumor volume [5, 10]: 0.89 cm^3
tumor weight [5, 10]: 0.82 g
CASP2L RNA, fold of the untreated level [6]: 14.62 fold
CASP2S RNA, fold of the untreated level [6]: 1.46 fold
CASP2L RNA, fold of the untreated level [7]: 7.38 fold
CASP2S RNA, fold of the untreated level [7]: 1.97 fold
